Measured values published in patent publication US20200405697A1, “Antitumor Agent” (Taiho Pharmaceutical Co., Ltd, priority 2017, published 2020).

target: T1, human RNR (histidine tagged human M1 and human M2 proteins) (Homo sapiens, UniProt P23921); test: Human RNR inhibition effect (dCDP formation from CDP); type: biochemical; settings: 10 μM CDP, 37° C. for 30 minutes, read-out: RNR inhibitory activity IC50
T1 construct: made in house; host or cells: Escherichia coli
T1 sequence (P23921 1-792): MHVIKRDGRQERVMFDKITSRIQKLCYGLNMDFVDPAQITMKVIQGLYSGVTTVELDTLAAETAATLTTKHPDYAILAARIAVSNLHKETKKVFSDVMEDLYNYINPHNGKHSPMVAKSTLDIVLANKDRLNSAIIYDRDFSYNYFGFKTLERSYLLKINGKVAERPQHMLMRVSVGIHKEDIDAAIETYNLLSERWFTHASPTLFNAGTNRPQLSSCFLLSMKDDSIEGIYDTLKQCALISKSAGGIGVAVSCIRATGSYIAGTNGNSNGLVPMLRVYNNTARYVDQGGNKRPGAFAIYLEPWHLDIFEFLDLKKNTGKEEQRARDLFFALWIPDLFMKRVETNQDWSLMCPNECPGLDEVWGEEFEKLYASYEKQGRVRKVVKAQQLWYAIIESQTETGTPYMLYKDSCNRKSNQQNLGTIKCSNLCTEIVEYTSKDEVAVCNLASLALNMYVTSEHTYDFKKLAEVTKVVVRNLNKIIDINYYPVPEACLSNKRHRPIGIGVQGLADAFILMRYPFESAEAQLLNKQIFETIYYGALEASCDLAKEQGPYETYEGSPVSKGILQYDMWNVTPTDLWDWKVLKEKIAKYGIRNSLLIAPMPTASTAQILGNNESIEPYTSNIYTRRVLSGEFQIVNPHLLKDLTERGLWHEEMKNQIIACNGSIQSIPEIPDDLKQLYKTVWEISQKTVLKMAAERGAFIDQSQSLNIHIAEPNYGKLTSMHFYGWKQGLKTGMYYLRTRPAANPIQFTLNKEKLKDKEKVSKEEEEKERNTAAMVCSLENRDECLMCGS
Method in brief: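 His-tagged human M1 (isoform 1) and N-terminal 59-aa-truncated M2 (isoform 2), E. coli-expressed, Ni-purified, preincubated 20 min with compound (1% DMSO). Reaction with 10 μM CDP, 2 mM ATP, 0.24 mM NADPH, 6 mM DTT, 4 mM Mg acetate, 100 mM KCl, 50 mM HEPES pH 7.2, 30 min at 37° C. dCDP formed quantified by reverse-phase HPLC after heat stop.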

Row | Compound | IC50 [nM]
1 | Cc1ccc(F)c([C@@H](C)[C@H](NS(=O)(=O)c2ccc(Cl)s2)c2n[nH]c(=O)o2)c1C [Example 158, 5-chloro-N-((1S,2R)-2-(6-fluoro-2,3-dimethylphenyl)-1-(5-oxo-4,5-dihydro-1,3,4-oxadiazol-2-yl)propyl)thiophene-2-sulfonamide] | 450
2 | Cc1ccc(F)c([C@@H](C)[C@H](NS(=O)(=O)c2ccc3c(c2)CC(=O)N3)c2n[nH]c(=O)o2)c1C [Example 162, N-((1S,2R)-2-(6-fluoro-2,3-dimethylphenyl)-1-(5-oxo-4,5-dihydro-1,3,4-oxadiazol-2-yl)propyl)-2-oxoindoline-5-sulfonamide] | 740
3 | Cc1ccc(F)c([C@@H](C)[C@H](NS(=O)(=O)c2cccc3c2OCCO3)c2n[nH]c(=O)o2)c1C [Example 164, N-((1S,2R)-2-(6-fluoro-2,3-dimethylphenyl)-1-(5-oxo-4,5-dihydro-1,3,4-oxadiazol-2-yl)propyl)-2,3-dihydrobenzo[b][1,4]dioxin-5-sulfonamide] | 330
4 | Cc1ccc(F)c([C@@H](C)[C@H](NS(=O)(=O)c2ccc3[nH]c(=O)[nH]c3c2)c2n[nH]c(=O)o2)c1C [Example 165, N-((1S,2R)-2-(6-fluoro-2,3-dimethylphenyl)-1-(5-oxo-4,5-dihydro-1,3,4-oxadiazol-2-yl)propyl)-2-oxo-2,3-dihydro-1H-benzo[d]imidazole-5-sulfonamide] | 830
5 | Cc1ccc(S(=O)(=O)N[C@H](c2n[nH]c(=O)o2)[C@H](C)c2c(F)ccc(C)c2C)cc1S(=O)(=O)N1CCCCC1 [Example 171, N-((1S,2R)-2-(6-fluoro-2,3-dimethylphenyl)-1-(5-oxo-4,5-dihydro-1,3,4-oxadiazol-2-yl)propyl)-4-methyl-3-(piperidin-1-ylsulfonyl)benzenesulfonamide] | 470
6 | Cc1ccc(F)c([C@@H](C)[C@H](NS(=O)(=O)c2ccc3[nH]c(=O)c(=O)[nH]c3c2)c2n[nH]c(=O)o2)c1C [Example 172, N-((1S,2R)-2-(6-fluoro-2,3-dimethylphenyl)-1-(5-oxo-4,5-dihydro-1,3,4-oxadiazol-2-yl)propyl)-2,3-dioxo-1,2,3,4-tetrahydroquinoxaline-6-sulfonamide] | 820
7 | Cc1ccc(F)c([C@@H](C)[C@H](NS(=O)(=O)c2ccc3c(c2)C(=O)CCC3)c2n[nH]c(=O)o2)c1C [Example 174, N-((1S,2R)-2-(6-fluoro-2,3-dimethylphenyl)-1-(5-oxo-4,5-dihydro-1,3,4-oxadiazol-2-yl)propyl)-8-oxo-5,6,7,8-tetrahydronaphthalene-2-sulfonamide] | 350
8 | Cc1ccc(F)c([C@@H](C)[C@H](NS(=O)(=O)c2ccc(Cl)c(S(N)(=O)=O)c2)c2n[nH]c(=O)o2)c1C [Example 176, 4-chloro-N1-((1S,2R)-2-(6-fluoro-2,3-dimethylphenyl)-1-(5-oxo-4,5-dihydro-1,3,4-oxadiazol-2-yl)propyl)benzene-1,3-disulfonamide] | 810
9 | Cc1ccc(F)c([C@@H](C)[C@H](NS(=O)(=O)c2ccc3[nH]nnc3c2)c2n[nH]c(=O)o2)c1C [Example 181, N-((1S,2R)-2-(6-fluoro-2,3-dimethylphenyl)-1-(5-oxo-4,5-dihydro-1,3,4-oxadiazol-2-yl)propyl)-1H-benzo[d][1,2,3]triazole-5-sulfonamide] | 660
10 | Cc1ccc(F)c([C@@H](C)[C@H](NS(=O)(=O)c2ccc3[nH]ncc3c2)c2n[nH]c(=O)o2)c1C [Example 182, N-((1S,2R)-2-(6-fluoro-2,3-dimethylphenyl)-1-(5-oxo-4,5-dihydro-1,3,4-oxadiazol-2-yl)propyl)-1H-indazole-5-sulfonamide] | 410

Compounds with a lower IC50, results first:

Row | IC50 [nM] | Compound
11 | 280 | Cc1ccc(F)c([C@@H](C)[C@H](NS(=O)(=O)c2ccc(Cl)c(-c3nnn[nH]3)c2)c2n[nH]c(=O)o2)c1C [Example 161, 4-chloro-N-((1S,2R)-2-(6-fluoro-2,3-dimethylphenyl)-1-(5-oxo-4,5-dihydro-1,3,4-oxadiazol-2-yl)propyl)-3-(1H-tetrazol-5-yl)benzenesulfonamide]
12 | 280 | Cc1ccc(F)c([C@@H](C)[C@H](NS(=O)(=O)c2ccc3c(c2)C(=O)CCO3)c2n[nH]c(=O)o2)c1C [Example 179, N-((1S,2R)-2-(6-fluoro-2,3-dimethylphenyl)-1-(5-oxo-4,5-dihydro-1,3,4-oxadiazol-2-yl)propyl)-4-oxochroman-6-sulfonamide]
13 | 190 | Cc1ccc(F)c([C@@H](C)[C@H](NS(=O)(=O)c2ccc(F)c(S(C)(=O)=O)c2)c2n[nH]c(=O)o2)c1C [Example 169, 4-fluoro-N-((1S,2R)-2-(6-fluoro-2,3-dimethylphenyl)-1-(5-oxo-4,5-dihydro-1,3,4-oxadiazol-2-yl)propyl)-3-(methylsulfonyl)benzenesulfonamide]
14 | 170 | COC(=O)c1c(F)ccc(S(=O)(=O)N[C@H](c2n[nH]c(=O)o2)[C@H](C)c2c(F)ccc(C)c2C)c1F [Example 178, methyl 2,6-difluoro-3-(N-((1S,2R)-2-(6-fluoro-2,3-dimethylphenyl)-1-(5-oxo-4,5-dihydro-1,3,4-oxadiazol-2-yl)propyl)sulfamoyl)benzoate]
15 | 160 | Cc1ccc(F)c([C@@H](C)[C@H](NS(=O)(=O)c2ccc(F)c3c2OCCC3=O)c2n[nH]c(=O)o2)c1C [Example 159, 5-fluoro-N-((1S,2R)-2-(6-fluoro-2,3-dimethylphenyl)-1-(5-oxo-4,5-dihydro-1,3,4-oxadiazol-2-yl)propyl)-4-oxochroman-8-sulfonamide]
16 | 130 | Cc1ccc(F)c([C@@H](C)[C@H](NS(=O)(=O)c2ccc(Cl)c(C(=O)N3CCC4(COC4)C3)n2)c2n[nH]c(=O)o2)c1C [Example 155, 5-chloro-N-((1S,2R)-2-(6-fluoro-2,3-dimethylphenyl)-1-(5-oxo-4,5-dihydro-1,3,4-oxadiazol-2-yl)propyl)-6-(2-oxa-6-aza-spiro[3.4]octane-6-carbonyl)pyridine-2-sulfonamide]
17 | 130 | Cc1ccc(F)c([C@@H](C)[C@H](NS(=O)(=O)c2ccc3c(c2)OCCO3)c2n[nH]c(=O)o2)c1C [Example 173, N-((1S,2R)-2-(6-fluoro-2,3-dimethylphenyl)-1-(5-oxo-4,5-dihydro-1,3,4-oxadiazol-2-yl)propyl)-2,3-dihydrobenzo[b][1,4]dioxin-6-sulfonamide]
18 | 100 | CC(=O)NC1CCOc2c(S(=O)(=O)N[C@H](c3n[nH]c(=O)o3)[C@H](C)c3c(F)ccc(C)c3C)ccc(Cl)c21 (stereo partly drawn) [Example 157, N-(5-chloro-8-(N-((1S,2R)-2-(6-fluoro-2,3-dimethylphenyl)-1-(5-oxo-4,5-dihydro-1,3,4-oxadiazol-2-yl)propyl)sulfamoyl)chroman-4-yl)acetamide]
19 | 80 | Cc1ccc(F)c([C@@H](C)[C@H](NS(=O)(=O)c2ccc(Cl)c(C(=O)N3CCC4(CC3)COC4)n2)c2n[nH]c(=O)o2)c1C [Example 156, 5-chloro-N-((1S,2R)-2-(6-fluoro-2,3-dimethylphenyl)-1-(5-oxo-4,5-dihydro-1,3,4-oxadiazol-2-yl)propyl)-6-(2-oxa-7-azaspiro[3.5]nonane-7-carbonyl)pyridine-2-sulfonamide]
20 | 80 | CC(=O)OC1(C)CCOc2c(S(=O)(=O)N[C@H](c3n[nH]c(=O)o3)[C@H](C)c3c(F)ccc(Br)c3C)ccc(Cl)c21 (some centres unmarked) [Example 167]
